Marks after values point to notes of the source that are not given here.
What was measured:
Settings in all cases: hop acids 2 ppm, monensin 6 ppm
total bacteria = assay: In vitro microbe measurements: bacterial purine (measurement of total bacteria); assay type: cell-based
Text: Proprionate is largely responsible for animal growth. […] There appears to be no effect on alfalfa protozoa and alfalfa bacterial purine by the beta acids. Again, reduction in protozoa and bacteria levels means more food and energy for animal growth.

Isotrichia = assay: In vitro microbe measurements: protozoa count, Isotrichia
Entodiniomorph spp = assay: In vitro microbe measurements: protozoa count, Entodiniomorph spp / Entodinia

## CC[C@@]1([C@@H]2O[C@@H]([C@H]3O[C@@](O)(CO)[C@H](C)C[C@@H]3C)C[C@@H]2C)CC[C@H]([C@]2(C)CC[C@]3(C[C@H](O)[C@@H](C)[C@@H]([C@@H](C)[C@@H](OC)[C@H](C)C(=O)O)O3)O2)O1 [monensin]
Total bacteria; alfalfa
  Bacterial purines: 2.6^c mg/tube
  Protozoa and bacterial purines versus control, in words: most effectively eliminate
Total bacteria; barley
  Bacterial purines: 1.5^b mg/tube
Total bacteria; corn
  Bacterial purines: 1.4^a Mg/tube
Isotrichia; alfalfa
  Protozoa, Isotrichia: 0^c × 10^3 no/mL
Isotrichia; barley
  Protozoa, Isotricha: 0 × 10^3 no/mL
Isotrichia; corn
  Protozoa, Isotricha: 0.7 × 10^3 no/mL
Entodiniomorph spp; alfalfa
  Protozoa, Entodinia: 6^c × 10^3 no/mL
Entodiniomorph spp; barley
  Protozoa, Entodinia: 38^b × 10^3 no/mL
Entodiniomorph spp; corn
  Protozoa, Entodinia: 28^bc × 10^3 no/mL

— patent US20060134248A1, “Hop acids as a replacement for antibiotics in animal feed” (priority 2002, published 2006)
